These results are taken from patent US4755525A, “2-(fluoroalkyl)-benzimidazoles as inhibitors of 5-lipoxygenase” (Beecham Group p.l.c., priority 1985, dated 1988).

In general, inhibition refers to the share of the control response that was lost under treatment.

Assay [1] has as its target T1, 5-Lipoxygenase enzyme from RBL-1 cells (Rattus norvegicus, UniProt P12527).
T1 construct: prepared as a 10,000 g supernatant from RBL-1 cells; endogenous in cells; host or cells: RBL-1 cells (10,000 g supernatant)
T1 sequence (P12527 1-673): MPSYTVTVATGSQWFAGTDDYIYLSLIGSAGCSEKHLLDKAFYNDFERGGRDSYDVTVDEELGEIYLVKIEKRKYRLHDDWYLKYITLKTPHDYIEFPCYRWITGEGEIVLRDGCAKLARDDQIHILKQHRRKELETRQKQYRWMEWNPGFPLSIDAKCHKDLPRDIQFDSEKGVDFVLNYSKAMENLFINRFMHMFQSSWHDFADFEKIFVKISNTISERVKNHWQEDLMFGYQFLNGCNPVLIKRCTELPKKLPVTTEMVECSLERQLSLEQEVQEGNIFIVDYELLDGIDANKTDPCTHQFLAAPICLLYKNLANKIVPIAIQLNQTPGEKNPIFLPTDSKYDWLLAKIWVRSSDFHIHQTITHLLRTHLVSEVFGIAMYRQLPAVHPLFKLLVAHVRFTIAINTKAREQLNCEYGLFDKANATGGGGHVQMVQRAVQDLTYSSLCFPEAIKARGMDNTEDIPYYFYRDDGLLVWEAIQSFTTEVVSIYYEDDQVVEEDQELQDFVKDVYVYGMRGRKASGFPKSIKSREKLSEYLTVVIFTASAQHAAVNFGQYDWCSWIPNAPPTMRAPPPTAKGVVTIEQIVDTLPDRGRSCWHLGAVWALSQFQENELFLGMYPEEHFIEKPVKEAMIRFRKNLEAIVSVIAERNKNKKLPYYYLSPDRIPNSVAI
Kind of assay: RBL-1 5-lipoxygenase screen (cell free). The class given is biochemical. Particulars: read-out: percentage inhibition of 5-lipoxygenase. As to the method:
RBL-1 5-LIPOXYGENASE SCREEN
5-Lipoxygenase enzyme was prepared as a 10,000 g supernatant from RBL-1 cells by the method of Jakschik [Jakschik, B. A., F. F. Sun, L. M. Lee, and M. M. Steinhoff, 1980, Biochem. Biophys. Res. Comm. 95, 103]. The 10,000 g supernatant was diluted with homogenization buffer to the equivalent of 1.5-2.5×10^7 cells. ml^-1 and made 2 mM with respect to CaCl2. Aliquots of 0.5 ml were then dispensed into tubes, and incubated at 29° C. with 5 μl ethanol or compound in ethanol at the desired concentration for 2 min. Then […] arachidonic acid was added in buffer to give a final concentration of 6.3 μM and 0.2 μCi per incubation, and the reaction continued at 29° C. for 2 min. The reaction was terminated by adding 1 ml of acetone and cooling on ice, 0.5 ml of ice-cold saline and 10 μl of 2N formic acid were added, and the mixture was extracted with 2×2 ml of chloroform. The extract was stored under N2 at -20° C. until analysis by chromatography. Activity was measured as the percentage of total radioactivity found in 5-HETE and 5,12-diHETE, and inhibition calculated as the decrease in formation of the sum of these two species in compound-treated incubates relative to control incubates.
This test is used to show inhibition of the 5-lipoxygenase enzyme in a mammalian RBL-1 cell free 5-lipoxygenase assay.

Assay [2] relates to carrageenin-induced pleurisy. As to the kind of experiment: Carrageenin-induced pleurisy in the rat. The class given is in vivo. Particulars: dose of 25 mg/kg p.o., given 1 hour before and 24 and 48 hours after carrageenin. The method, then:
CARRAGEENIN-INDUCED PLEURISY IN THE RAT
This model of monocyte accumulation is based on the method of R. Vinegar, J. F. Truax, J. L. Selph and F. A. Voelker [Federation Proceeding 41, 2588-2595, 1982].
0.2 ml of a 2.0% solution of λ-carrageenin (Viscarin 402) in saline was injected intrapleurally in anaesthetised rats (wt. approx. 175-200 g). Compounds were administered 1 hour before carrageenin and at 24 and 48 hours after carrageenin. 72 hours after carrageenin injection, 4.0 ml of EDTA solution (5 g EDTA in 100 ml of 0.9% saline and 325 mg phenol red added together with saline to 1 liter) was injected intrapleurally after killing the animals, and the exudate removed with a syringe through the diaphragm. Exudate volume was measured spectrophotometrically (560 nm) and cellular content estimated with a DNA assay [Karsten U. and Wollenberger A. Anal. Biochem. 77, 464-470, 1977].
This test is used to indicate anti-inflammatory activity against carrageenin-induced pleurisy in the rat. The compound of Example 1 was active at a dose of 25 mg/kg (p.o.).

Where a name gives a salt, the structure may show the parent alone.

Take `Cc1ccc(O)c2[nH]c(C(F)(F)F)nc12` [Example 2, 4-Hydroxy-7methyl-2-trifluoromethylbenzimidazole hydrochloride hydrate (4:4:1)]: in assay [1] (20 μM concentration), the inhibition at 20 µM was 68%. With `Cc1cc(C(C)(C)C)c(O)c2[nH]c(C(F)(F)F)nc12` [Example 1, 5-tert-Butyl-4-hydroxy-7-methyl-2-trifluoro-methylbenzimidazole], in assay [1] (1 μM concentration), the inhibition at 1 µM is 93%. Also, the “anti-inflammatory activity against carrageenin-induced pleurisy in the rat” value in assay [2] was “active”.
